Measurements taken from the NIST ThermoML archive (doi:10.1016/j.jct.2007.04.004).

Tests used:
[1] = Liquid; for mass density: 101.33 kPa, Pycnometric method; for Normal boiling temperature: Ebulliometric method (Recirculating still)
[2] = excess molar enthalpy (molar enthalpy of mixing); xn = mol fraction of the nth substance listed; conditions: 298.15 K, 101 kPa, Liquid

CC(=O)CC(C)C [4-methylpentan-2-one]
[1]
Conditions	mass density [kg/m3]	vapor or sublimation pressure [kPa]
298.15 K	796.33	–
386.7 K	–	95.3

Conditions	Normal boiling temperature [°C]
[1]	117.39

CC(=O)CC(C)C [4-methylpentan-2-one] + C[S+](C)[O-]
[2]
Conditions	excess molar enthalpy [kcal/mol]
x1 = 0.0387	0.0314
x1 = 0.0839	0.0636
x1 = 0.1332	0.0937
x1 = 0.1874	0.113
x1 = 0.2391	0.131
x1 = 0.2901	0.143
x1 = 0.3377	0.158
x1 = 0.3804	0.167
x1 = 0.4029	0.172
x1 = 0.4617	0.17
x1 = 0.5304	0.164
x1 = 0.6116	0.144
x1 = 0.6917	0.114
x1 = 0.7918	0.0687
x1 = 0.837	0.0539
x1 = 0.9237	0.0255

CCC(C)=O [butanone]
[1]
Conditions	mass density [kg/m3]	vapor or sublimation pressure [kPa]
298.15 K	799.71	–
350.9 K	–	95.3

Conditions	Normal boiling temperature [°C]
[1]	79.54

CCC(C)=O [butanone] + C[S+](C)[O-]
[2]
Conditions	excess molar enthalpy [kcal/mol]
x1 = 0.054	0.0179
x1 = 0.1094	0.0357
x1 = 0.1725	0.0509
x1 = 0.2385	0.0621
x1 = 0.2956	0.0729
x1 = 0.3507	0.0832
x1 = 0.4007	0.0891
x1 = 0.4448	0.0936
x1 = 0.4881	0.0944
x1 = 0.5787	0.0966
x1 = 0.6433	0.0864
x1 = 0.7077	0.0737
x1 = 0.7797	0.0581
x1 = 0.856	0.0356
x1 = 0.9297	0.0135

O=C1CCCCC1 [cyclohexanone]
[1]
Conditions	mass density [kg/m3]	vapor or sublimation pressure [kPa]
303.15 K	937.58	–
426.3 K	–	95.3

Conditions	Normal boiling temperature [°C]
[1]	155.69

O=C1CCCCC1 [cyclohexanone] + C[S+](C)[O-]
[2]
Conditions	excess molar enthalpy [kcal/mol]
x1 = 0.0386	0.0249
x1 = 0.0873	0.0566
x1 = 0.1405	0.0601
x1 = 0.1917	0.105
x1 = 0.2431	0.121
x1 = 0.3037	0.135
x1 = 0.3596	0.152
x1 = 0.4115	0.161
x1 = 0.5044	0.165
x1 = 0.5686	0.158
x1 = 0.6399	0.147
x1 = 0.7238	0.126
x1 = 0.8119	0.0913
x1 = 0.9101	0.048

C[S+](C)[O-] [dimethyl sulfoxide]
[1]
Conditions	mass density [kg/m3]	vapor or sublimation pressure [kPa]
298.15 K	1095.37	–
461 K	–	95.3

Conditions	Normal boiling temperature [°C]
[1]	189.04
